Values after ≈ are worked out from the molar mass of the structure shown. Where two headings read alike, the source gives them in different places.
Tests used:
[1] = target: T1, full-length TOP2A (Homo sapiens, UniProt P11388); experiment: EMSA, full-length TOP2A with 5ZRF DNA oligo; format: binding; design: EMSA was performed by purified full-length TOP2A or TOP2B proteins; conditions: 200 µM compound, 300 nM protein, 100 nM oligo
Protocol: (§1) (A) EMSA was performed by purified full-length TOP2A or TOP2B proteins at a contraction of 300 nM with IRDay700 labeled 5ZRF DNA oligo at a concentration of 100 nM in the presence of −/+200 µM of ICRF193, T60, T637, and T638. […] Reactions were subjected to fluorescence […], which were detected by using the Multimode Microplate Reader (Infinite F500). (D) DNA cleavage assays were performed using full-length human TOP2A and TOP2B incubated with the supercoiled pHOT plasmid in the presence of 200 µM of etoposide plus 1, 100, or 200 µM of ICRF193, T60, T637, and T638. Reactions were separated on a DNA gel with ethidium bromide. All experiments were repeated three times, and one representative image was shown. Note: N, nicked DNA; L, linear DNA; and SC, supercoiled DNA.

[2] = target: T1, full-length TOP2A; experiment: DNA cleavage assay, TOP2A; format: biochemical; design: DNA cleavage assays were performed using full-length human TOP2A and TOP2B; conditions: 200 µM etoposide plus 1, 100 or 200 µM compound, pHOT plasmid
Protocol: as §1

[3] = test system: K562 cells; experiment: Cytotoxicity by LDH release; conditions: K562, 0-20 uM, 48 h
Protocol: (§3) (A) K562 cells were treated with 0, 0.5, 1, 5, 10, 15, and 20 uM of T60 or 0, 0.5, 1, 5, 10, 15, 20, 50, and 100 uM of T637 and T638 for 24, 48, or 72 h. […] (B) NCI-H446 small cell lung cancer line and Hela cervical cancer line were treated with 0, 0.5, 1, 5, 10, 15, and 20 uM of T60 or 0, 0.5, 1, 5, 10, 15, 20, 50, and 100 uM of T637 and T638 for five days. Cell growth rates were measured by using Incucyte^TM. (C) K562 cells were treated with 0, 5, 10, 15, and 20 uM of T60, T637, or T638 for 48 h. Cytotoxicity was evaluated by measuring the LDH levels from the culture media. (D) K562 cells were treated with the vehicle or 10–20 µM of etoposide, T60, T637, or T638 for 4 h. Immunoblotting measured p-H2AXγ levels in cells with vinculin as a loading control.

[4] = Solubility by LC/MS/MS; format: physicochemical; conditions: kinetic from dmso stock
Protocol: Stock solutions of the tested compounds at 50 mM in dimethyl sulfoxide (DMSO) were diluted 50-fold in methanol (MeOH), Roswell Park Memorial Institute-1640 (RPMI1640), plus 5% charcoal-stripped serum (CSS) from Sigma-Aldrich (media) and phosphate-buffered saline (PBS), and vortexed at room temperature for 1 h at 800 rpm. The resulting solutions were centrifuged at 20,000× g for 5 min, and the saturated supernatants were diluted 40-fold in acetonitrile. The resultant solutions were subjected to LC/MS/MS to determine the solubility.

[5] = target: TOP2A (Homo sapiens, UniProt P11388); experiment: K-DNA decatenation assay, TOP2A; format: biochemical; conditions: 0.01-200 uM, three biological repeats
Sequence of TOP2A (P11388 whole entry): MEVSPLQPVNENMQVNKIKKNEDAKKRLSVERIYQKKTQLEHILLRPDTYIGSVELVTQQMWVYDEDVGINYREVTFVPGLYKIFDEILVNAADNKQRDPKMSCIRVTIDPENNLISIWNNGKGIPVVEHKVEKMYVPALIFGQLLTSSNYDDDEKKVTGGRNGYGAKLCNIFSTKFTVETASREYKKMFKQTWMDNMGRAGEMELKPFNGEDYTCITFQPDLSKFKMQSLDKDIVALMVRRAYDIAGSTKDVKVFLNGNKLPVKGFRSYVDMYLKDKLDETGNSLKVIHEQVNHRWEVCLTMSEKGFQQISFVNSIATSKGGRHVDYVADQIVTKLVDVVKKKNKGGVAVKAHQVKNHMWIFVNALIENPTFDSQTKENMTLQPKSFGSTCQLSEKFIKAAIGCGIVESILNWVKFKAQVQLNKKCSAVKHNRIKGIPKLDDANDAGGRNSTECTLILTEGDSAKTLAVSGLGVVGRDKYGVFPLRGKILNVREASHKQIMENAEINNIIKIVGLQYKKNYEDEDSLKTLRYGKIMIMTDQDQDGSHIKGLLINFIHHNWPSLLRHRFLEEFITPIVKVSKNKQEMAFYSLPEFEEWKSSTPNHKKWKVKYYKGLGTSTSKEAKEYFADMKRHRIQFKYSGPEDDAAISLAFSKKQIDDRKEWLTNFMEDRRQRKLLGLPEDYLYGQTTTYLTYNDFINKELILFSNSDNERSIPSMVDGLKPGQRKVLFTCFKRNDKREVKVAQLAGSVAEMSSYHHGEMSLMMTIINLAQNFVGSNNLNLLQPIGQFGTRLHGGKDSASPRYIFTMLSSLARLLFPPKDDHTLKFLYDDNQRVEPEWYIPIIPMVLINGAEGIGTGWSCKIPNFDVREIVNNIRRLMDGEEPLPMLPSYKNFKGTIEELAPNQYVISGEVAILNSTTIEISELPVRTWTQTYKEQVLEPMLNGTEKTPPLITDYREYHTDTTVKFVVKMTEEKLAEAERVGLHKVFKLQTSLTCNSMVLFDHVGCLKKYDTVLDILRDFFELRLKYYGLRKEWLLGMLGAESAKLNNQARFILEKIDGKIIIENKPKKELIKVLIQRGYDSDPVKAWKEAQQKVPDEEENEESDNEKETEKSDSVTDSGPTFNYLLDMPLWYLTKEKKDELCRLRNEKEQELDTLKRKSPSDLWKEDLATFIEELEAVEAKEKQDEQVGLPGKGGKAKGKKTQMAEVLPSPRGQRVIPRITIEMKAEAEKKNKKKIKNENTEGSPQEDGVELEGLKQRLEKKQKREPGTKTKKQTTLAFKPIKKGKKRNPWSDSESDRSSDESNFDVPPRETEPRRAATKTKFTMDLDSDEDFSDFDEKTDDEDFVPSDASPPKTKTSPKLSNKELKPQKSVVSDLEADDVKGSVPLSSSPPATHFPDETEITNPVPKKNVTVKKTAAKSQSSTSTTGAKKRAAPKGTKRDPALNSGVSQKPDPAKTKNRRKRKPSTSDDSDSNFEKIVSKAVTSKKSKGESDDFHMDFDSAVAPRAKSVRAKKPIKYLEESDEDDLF
Protocol: (§2) Figure 2 T637 and T638 are TOP2A inhibitors. (A) K-DNA decatenation assays and (B) supercoiled plasmid DNA relaxation assays are used to measure TOP2A enzyme activity in the presence of 0.01–200 uM T637 or T638. Three biological repeats were performed with each concentration of the compounds, and the densitometry of the D-DNA bands from (A) and the SC bands from (B) was used to establish an inhibition curve for IC50 calculation.

[6] = target: full-length TOP2B (Homo sapiens, UniProt Q02880); experiment: DNA cleavage assay, TOP2B; format: biochemical; design: DNA cleavage assays were performed using full-length human TOP2A and TOP2B; conditions: 200 µM etoposide plus 1, 100 or 200 µM compound, pHOT plasmid
Sequence of full-length TOP2B (Q02880 whole entry): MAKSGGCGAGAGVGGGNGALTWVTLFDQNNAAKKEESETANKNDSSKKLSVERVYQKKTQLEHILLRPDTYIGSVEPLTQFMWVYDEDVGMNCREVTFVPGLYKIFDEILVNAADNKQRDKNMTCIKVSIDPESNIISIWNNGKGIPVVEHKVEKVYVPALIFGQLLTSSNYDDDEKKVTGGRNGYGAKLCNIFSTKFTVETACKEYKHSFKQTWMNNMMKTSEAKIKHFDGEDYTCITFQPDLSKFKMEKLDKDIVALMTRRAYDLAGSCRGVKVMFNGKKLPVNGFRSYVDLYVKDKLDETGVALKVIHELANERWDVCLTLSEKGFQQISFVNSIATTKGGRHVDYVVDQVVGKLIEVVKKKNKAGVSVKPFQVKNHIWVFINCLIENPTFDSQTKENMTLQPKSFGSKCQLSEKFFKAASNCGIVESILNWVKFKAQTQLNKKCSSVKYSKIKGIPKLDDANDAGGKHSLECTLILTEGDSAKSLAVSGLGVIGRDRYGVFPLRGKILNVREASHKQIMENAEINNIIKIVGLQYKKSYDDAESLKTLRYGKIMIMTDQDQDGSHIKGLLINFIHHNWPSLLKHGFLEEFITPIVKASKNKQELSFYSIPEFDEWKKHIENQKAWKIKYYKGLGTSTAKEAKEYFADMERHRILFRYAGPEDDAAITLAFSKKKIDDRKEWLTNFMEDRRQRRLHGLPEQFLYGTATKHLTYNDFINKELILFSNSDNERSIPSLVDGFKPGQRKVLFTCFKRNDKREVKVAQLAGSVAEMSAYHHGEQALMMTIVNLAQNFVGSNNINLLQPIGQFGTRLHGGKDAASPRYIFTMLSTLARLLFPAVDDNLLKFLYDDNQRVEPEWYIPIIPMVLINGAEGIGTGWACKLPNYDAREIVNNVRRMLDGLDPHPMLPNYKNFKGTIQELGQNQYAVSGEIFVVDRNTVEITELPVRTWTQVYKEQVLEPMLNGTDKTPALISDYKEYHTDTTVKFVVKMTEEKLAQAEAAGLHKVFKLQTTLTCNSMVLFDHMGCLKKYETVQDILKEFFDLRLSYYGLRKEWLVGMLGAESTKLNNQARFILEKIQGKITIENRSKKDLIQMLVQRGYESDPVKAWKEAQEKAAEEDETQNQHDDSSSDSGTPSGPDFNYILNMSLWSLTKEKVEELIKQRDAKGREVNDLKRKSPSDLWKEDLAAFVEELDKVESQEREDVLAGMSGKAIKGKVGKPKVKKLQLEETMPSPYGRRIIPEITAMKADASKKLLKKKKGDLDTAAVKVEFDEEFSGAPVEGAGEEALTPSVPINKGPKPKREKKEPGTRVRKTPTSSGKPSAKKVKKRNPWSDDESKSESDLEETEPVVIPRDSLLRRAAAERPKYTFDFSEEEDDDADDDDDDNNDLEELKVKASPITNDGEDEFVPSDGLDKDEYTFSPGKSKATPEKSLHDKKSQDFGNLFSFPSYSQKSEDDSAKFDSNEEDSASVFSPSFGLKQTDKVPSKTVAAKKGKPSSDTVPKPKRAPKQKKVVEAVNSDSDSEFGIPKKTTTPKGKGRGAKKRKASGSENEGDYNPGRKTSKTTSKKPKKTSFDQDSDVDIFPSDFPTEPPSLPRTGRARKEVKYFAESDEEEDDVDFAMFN
Protocol: as §1

[7] = test system: K562 leukemia cells; experiment: K562 cell proliferation (MTS assay); conditions: K562, up to 100 uM
Protocol: as §3

[8] = target: T2, TOP2B (Homo sapiens, UniProt Q02880); experiment: K-DNA decatenation assay, TOP2B; format: biochemical; conditions: 0.01-200 uM, three biological repeats
T2 sequence (Q02880 whole entry): as above
Protocol: as §2, with “Figure 3” for “Figure 2”, “are TOP2B” for “are TOP2A”, “measure TOP2B” for “measure TOP2A enzyme”

[9] = target: T3, human TOP2A(431-1193) (Homo sapiens, UniProt P11388); experiment: Microscale thermophoresis (MST) binding assay; conditions: 5 nM NT647-labelled TOP2A(431-1193), 0.015-500 µM compound; read-out: Kd, direct TOP2-compound binding (MST)
T3 construct: 6xHis (N); made in house; host or cells: E. coli BL21 (DE3)
T3 sequence (P11388 431-1193): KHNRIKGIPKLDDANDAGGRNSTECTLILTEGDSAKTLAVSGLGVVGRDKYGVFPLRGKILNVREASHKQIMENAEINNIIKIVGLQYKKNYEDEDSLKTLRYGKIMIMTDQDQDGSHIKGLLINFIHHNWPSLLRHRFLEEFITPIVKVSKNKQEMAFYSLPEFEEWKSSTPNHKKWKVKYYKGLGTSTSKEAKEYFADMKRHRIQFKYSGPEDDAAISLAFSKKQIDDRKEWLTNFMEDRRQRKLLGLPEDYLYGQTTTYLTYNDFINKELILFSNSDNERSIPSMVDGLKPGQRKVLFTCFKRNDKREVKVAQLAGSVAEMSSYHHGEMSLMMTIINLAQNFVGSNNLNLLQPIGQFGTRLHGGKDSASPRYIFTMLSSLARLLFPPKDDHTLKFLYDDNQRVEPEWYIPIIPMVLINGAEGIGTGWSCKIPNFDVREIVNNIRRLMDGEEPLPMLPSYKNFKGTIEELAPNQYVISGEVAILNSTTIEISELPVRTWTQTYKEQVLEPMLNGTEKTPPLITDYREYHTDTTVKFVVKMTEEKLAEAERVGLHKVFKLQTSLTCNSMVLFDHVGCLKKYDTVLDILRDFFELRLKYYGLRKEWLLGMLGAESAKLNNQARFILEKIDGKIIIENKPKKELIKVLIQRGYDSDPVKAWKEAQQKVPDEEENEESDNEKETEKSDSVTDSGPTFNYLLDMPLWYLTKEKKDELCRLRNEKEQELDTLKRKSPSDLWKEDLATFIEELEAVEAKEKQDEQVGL
Protocol: It was transformed into BL21 (DE3) E. coli cells and induced by 0.5 mM IPTG for 16 h at 16 °C. Cells were lysed by sonication and protein purification was by chromatography with the Ni-NTA beads (Invitrogen), followed by a size exclusion chromatography (Superdex 200). […] A serial dilution of the inhibitors was prepared with 100% DMSO and subsequently mixed with the labeled fluorescent protein in the assay buffer (20 mM Tris pH 8.0, 100 mM NaCl, 0.1% NP40, 0.2 mM TCEP, and 0.1 mM PMSF) at the final concentrations of 0.015–500 uM. The final concentration of the protein was 5 nM. The labeled protein and small molecules mix were allowed to incubate in the dark at room temperature for 5 min before filling the capillaries. MST assays were performed with 5–20% LED/excitation power and medium MST power using premium capillaries for Monolith NT.115. The data for the estimation of Kd were analyzed using MO Affinity Analysis software from Nanotemper.
(A) Ethidium bromide displacement assays were performed by mixing 100 µg/mL salmon sperm DNA with −/+2 µg/mL ethidium bromide and the indicated compounds. Reactions were subjected to fluorescence emission of 590 nm and excitation of 535 nm. Obtained signals were detected by using the Multimode Microplate Reader (Infinite F500). […] Reactions were subjected to 5–20% LED/excitation power and medium MST power using premium capillaries. Obtained signals were detected by using the Monolith NT.115 system. The change in thermophoresis is expressed as the change in the normalized fluorescence (ΔFnorm). MST assays were repeated with two control compounds, enzalutamide (Enza) and merbarone.

[10] = test system: K562 cells; experiment: Immunoblotting of p-H2AXγ (DNA damage); conditions: K562, 10-20 µM, 4 h
Protocol: as §3

[11] = in vitro; conditions: mouse, liver microsomes, pH 7.4
Protocol: The reaction was initiated by adding NADPH, followed by incubation at 37 °C. […] The samples were then vortexed and centrifuged at 16,000 rpm for 10 min at 4 °C. The supernatants were collected and analyzed by LC/MS/MS to determine the remaining percentage and the half-life (t1/2) by integrating compound peaks and fitting the resulting AUC values and time points to a one-phase decay equation.

[12] = target: T3, human TOP2A(431-1193); experiment: EMSA, TOP2A(431-1193) with 5ZRF DNA oligo; format: binding; conditions: 2 uM protein, 300 nM oligo
[13] = target: T2, TOP2B; experiment: Supercoiled plasmid DNA relaxation assay, TOP2B; format: biochemical; conditions: 0.01-200 uM, three biological repeats
Protocol: as §2, with “Figure 3” for “Figure 2”, “are TOP2B” for “are TOP2A”, “measure TOP2B” for “measure TOP2A enzyme”

T1 sequence (P11388 whole entry): as the sequence (P11388 whole entry) above

Nc1cc(Nc2ccccc2)ccc1NC(=O)c1ccc[nH]c1=S [T638]
Block of TOP2A-DNA oligo complex formation (EMSA) [1]: block | Prevention of etoposide-induced DNA cleavage, TOP2A [2]: did prevent etoposide-induced DNA cleavage | Cytotoxicity (LDH release), in words [3]: not observed | solubility at 1 h ([4]; RPMI1640 plus 5% charcoal-stripped serum, plasma or biological fluid, cell culture media with serum, read-out: Solubility Media/FBS): 485 µM | solubility at 1 h ([4]; methanol, organic solvent or mixture, methanol, read-out: Solubility Methanol): > 1000 µM | solubility at 1 h ([4]; phosphate-buffered saline, aqueous buffer, PBS, read-out: Solubility PBS): 142 µM (≈ 47.8 µg/mL) | IC50 [5]: ~0.7 µM | Prevention of etoposide-induced DNA cleavage, TOP2B [6]: did prevent etoposide-induced DNA cleavage | Maximum cell proliferation inhibition ([7]; 48 h): 100% | Maximum cell proliferation inhibition ([7]; 72 h): 100% | IC50 [8]: ~3.8 µM | Kd [9]: ~87 µM | Intracellular DNA damage (phospho-H2AXγ protein levels) [10]: do not cause intracellular DNA damage | half-life at 1 uM [11]: > 16.7 h | microsomal CLint at 1 uM [11]: 2 µL/min/mg | Inhibition of TOP2A(431-1193)-DNA interaction (EMSA) [12]: inhibited TOP2A–DNA interaction dose-dependently | IC50 [13]: 7.5 µM

From publication PMC8345109, “Optimization of New Catalytic Topoisomerase II Inhibitors as an Anti-Cancer Therapy” (Cancers, 2021)
